Measured values published in patent US9771370B2, “Compounds for the inhibition of indoleamine-2,3-dioxygenase” (Merck Patent GmbH, priority 2014, dated 2017).

Target: Recombinant human IDO (Homo sapiens, UniProt P14902)
Experiment: Bridge-IT tryptophan fluorescence assay of human IDO-1 inhibition
Assay type: biochemical
Details: recombinant human IDO 7.5 nM, L-tryptophan
Protocol: Measurement of human IDO-1 inhibition is performed in 384 well format using the Bridge-IT® tryptophan Fluorescence Assay (Mediomics, LLC, St. Louis, Mo., U.S.A.).
The reaction is initiated by the addition of L-Tryptophan (Sigma) at a final concentration of 100 μM in assay buffer. After 90 minutes of incubation at 37° C., the reaction is stopped by transferring 1 μl of the reaction mixture to 9 μl of Bridge-IT assay solution A. After 30 min of incubation at 30° C., the fluorescence intensity was measured at λex=485 nm and λem=665 nm using Perkin Elmer Envision® Multilabel Reader.
Measurement of human IDO-1 inhibition was performed in 384-well format using the BRIDGE-IT® tryptophan Fluorescence Assay (Mediomics, LLC, St. Louis, Mo., U.S.A.). […] After 30 minutes of pre-incubation at 25° C., the reaction was initiated by the addition of L-Tryptophan (Sigma) at a final concentration of 50 μM in assay buffer. After 60 minutes of incubation at 25° C., the reaction is stopped by transferring 1 μl of the reaction mixture to 9 μl of Bridge-IT assay solution A. After 30 min of incubation at 30° C., the fluorescence intensity was measured at λex=485 nm and λem=665 nm using Perkin Elmer ENVISION® Multilabel Reader.

Chain of Recombinant human IDO (P14902 whole entry): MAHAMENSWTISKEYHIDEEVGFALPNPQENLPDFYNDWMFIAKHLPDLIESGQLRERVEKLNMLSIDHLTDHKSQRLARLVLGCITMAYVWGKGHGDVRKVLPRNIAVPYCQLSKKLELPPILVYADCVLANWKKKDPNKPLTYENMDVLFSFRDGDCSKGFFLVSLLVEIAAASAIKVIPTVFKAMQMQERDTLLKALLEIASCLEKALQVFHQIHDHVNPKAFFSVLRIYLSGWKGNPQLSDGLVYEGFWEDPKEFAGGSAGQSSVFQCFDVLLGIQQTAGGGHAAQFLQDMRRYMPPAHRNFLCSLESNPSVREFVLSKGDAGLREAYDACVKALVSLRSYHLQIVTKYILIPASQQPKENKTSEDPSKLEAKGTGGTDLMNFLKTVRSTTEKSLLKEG

IC50	Compound
> 1 µM	OC1CCC(C(O)CC2c3c(ccnc3F)-c3cncn32)CC1 (mixture of isomers) [Compound 4a, 4-(2-[9-fluoro-4,6,10-triazatricyclo[6.4.0.0^[2,6]]dodeca-1(8),2,4,9,11-pentaen-7-yl]-1-hydroxyethyl) cyclohexan-1-ol]
> 1 µM	OC1CCC(F)(CCC2c3ncccc3-c3cncn32)CC1 (mixture of isomers) [Compound 7a, 4-fluoro-4-(2-{4,6,9-triazatricyclo[6.4.0.0^[2,6]]dodeca-1(8),2,4,9,11-pentaen-7-yl}ethyl)cyclohexan-1-ol]
> 1 µM	OC1CCC(F)(CCC2c3ncccc3-c3cncn32)CC1 (mixture of isomers) [Compound 7b, 4-fluoro-4-(2-{4,6,9-triazatricyclo[6.4.0.0^[2,6]]dodeca-1(8),2,4,9,11-pentaen-7-yl}ethyl)cyclohexan-1-ol]
> 1 µM	OC(CC1c2ncncc2-c2cncn21)C1CCCCC1 (mixture of isomers) [Compound 67d, 1-cyclohexyl-2-[4,6,9,11-tetraazatricyclo[6.4.0.0^[2,6]]dodeca-1(8),2,4,9,11-pentaen-7-yl]ethan-1-ol]
> 1 µM	OC(CC1c2nc(OC3CC3)ccc2-c2cncn21)C1CCCCC1 (mixture of isomers) [Compound 68b, 1-cyclohexyl-2-[10-cyclopropoxy-4,6,9-triazatricyclo[6.4.0.0^[2,6]]dodeca-1(8),2,4,9,11-pentaen-7-yl]ethan-1-ol]
< 0.1 µM	OC1CCC(C(F)(F)CC2c3ccccc3-c3cncn32)CC1 (mixture of isomers) [Compound 74a, 4-(1,1-difluoro-2-[5H-imidazo[4,3-a]isoindol-5-yl]ethyl)cyclohexan-1-ol]
0.1 to 1 µM	OC1CCC(C(F)(F)CC2c3ccccc3-c3cncn32)CC1 (mixture of isomers) [Compound 74b, 4-(1,1-difluoro-2-[5H-imidazo[4,3-a]isoindol-5-yl]ethyl)cyclohexan-1-ol]
0.1 to 1 µM	OC1CCC(C(F)(F)CC2c3c(F)cccc3-c3cncn32)CC1 (mixture of isomers) [Compound 75b, 4-(1,1-difluoro-2-[6-fluoro-5H-imidazo[4,3-a]isoindol-5-yl]ethyl)cyclohexan-1-ol]
0.1 to 1 µM	OC1CCC(C(F)(F)CC2c3c(F)ccc(F)c3-c3cncn32)CC1 (mixture of isomers) [Compound 78a, 4-(2-[6,9-difluoro-5H-imidazo[4,3-a]isoindol-5-yl]-1,1-difluoroethyl)cyclohexan-1-ol]
> 1 µM	OC1CCC(C(F)(F)CC2c3c(F)ccc(F)c3-c3cncn32)CC1 (mixture of isomers) [Compound 78b, 4-(2-[6,9-difluoro-5H-imidazo[4,3-a]isoindol-5-yl]-1,1-difluoroethyl)cyclohexan-1-ol]
< 0.1 µM	OC1(C2CCC(F)(CCC3c4c(F)cccc4-c4cncn43)CC2)CC1 (mixture of isomers) [Compound 85a, 1-[4-fluoro-4-(2-[6-fluoro-5H-imidazo[4,3-a]isoindol-5-yl]ethyl)cyclohexyl]cyclopropan-1-ol]
< 0.1 µM	CC(C)(O)C1CCC(F)(CCC2c3c(F)cccc3-c3cncn32)CC1 (mixture of isomers) [Compound 86b, 2-[4-fluoro-4-(2-[6-fluoro-5H-imidazo[4,3-a]isoindol-5-yl]ethyl)cyclohexyl]propan-2-ol]
0.1 to 1 µM	O=C(C1CCC(F)(CCC2c3ncccc3-c3cncn32)CC1)N1CCCCC1 (mixture of isomers) [Compound 100a, 7-[2-[1-Fluoro-4-[(piperidin-1-yl)carbonyl]cyclohexyl]ethyl]-4,6,9-triazatricyclo[6.4.0.0^[2,6]]dodeca-1(8),2,4,9,11-pentaene]
> 1 µM	O=C(C1CCC(F)(CCC2c3ncccc3-c3cncn32)CC1)N1CCCCC1 (mixture of isomers) [Compound 100b, 7-[2-[1-Fluoro-4-[(piperidin-1-yl)carbonyl]cyclohexyl]ethyl]-4,6,9-triazatricyclo[6.4.0.0^[2,6]]dodeca-1(8),2,4,9,11-pentaene]
> 1 µM	OC1CCC(F)(CCC2c3nccc(F)c3-c3cncn32)CC1 (mixture of isomers) [Compound 103a, 4-fluoro-4-(2-[12-fluoro-4,6,9-triazatricyclo[6.4.0.0^[2,6]]dodeca-1(8),2,4,9,11-pentaen-7-yl]ethyl)cyclohexan-1-ol]
> 1 µM	NC1CCC(F)(CCC2c3ccccc3-c3cncn32)CC1 (mixture of isomers) [Compound 104a, 4-fluoro-4-(2-[5H-imidazo[4,3-a]isoindol-5-yl]ethyl)cyclohexan-1-amine]
0.1 to 1 µM	NC1CCC(F)(CCC2c3ccccc3-c3cncn32)CC1 (mixture of isomers) [Compound 104b, 4-fluoro-4-(2-[5H-imidazo[4,3-a]isoindol-5-yl]ethyl)cyclohexan-1-amine]
> 1 µM	OCC1CCC(F)(CCC2c3c(Cl)cccc3-c3cncn32)CC1 (mixture of isomers) [Compound 105b, [4-[2-[6-chloro-5H-imidazo[4,3-a]isoindol-5-yl]ethyl]-4-fluorocyclohexyl]methanol]
< 0.1 µM	OC1(C2CCC(F)(CCC3c4c(Cl)cccc4-c4cncn43)CC2)CC1 (mixture of isomers) [Compound 106a, 1-[4-(2-[6-chloro-5H-imidazo[4,3-a]isoindol-5-yl]ethyl)-4-fluorocyclohexyl]cyclopropan-1-ol]
> 1 µM	CC(C)(O)C1CCC(F)(CCC2c3c(Cl)cccc3-c3cncn32)CC1 (mixture of isomers) [Compound 107a, 2-[4-(2-[6-chloro-5H-imidazo[4,3-a]isoindol-5-yl]ethyl)-4-fluorocyclohexyl]propan-2-ol]
0.1 to 1 µM	FC(CC1c2ccccc2-c2cncn21)C1CCCCC1 (mixture of isomers) [Compound 108a, 5-[2-cyclohexyl-2-fluoroethyl]-5H-imidazo[4,3-a]isoindole]
0.1 to 1 µM	O=C(C1CCC(F)(CCC2c3c(F)cccc3-c3cncn32)CC1)N1CCCCC1 (mixture of isomers) [Compound 110b]
< 0.1 µM	CN(C)C(=O)C1CCC(F)(CCC2c3c(F)cccc3-c3cncn32)CC1 (mixture of isomers) [Compound 111a, 4-fluoro-4-(2-[6-fluoro-5H-imidazo[4,3-a]isoindol-5-yl]ethyl)-N,N-dimethylcyclohexane-1-carboxamide]
> 1 µM	COc1ccc2c(n1)C(CC(N)C1CCCCC1)n1cncc1-2 (mixture of isomers) [Compound 118a, 1-cyclohexyl-2-[10-methoxy-4,6,9-triazatricyclo[6.4.0.0^[2,6]]dodeca-1(8),2,4,9,11-pentaen-7-yl]ethan-1-amine]
0.1 to 1 µM	FC(F)(CC1c2ccccc2-c2cncn21)C1CCCCC1 (racemic) [Compound 64, 5-(2-cyclohexyl-2,2-difluoroethyl)-5H-imidazo[4,3-a]isoindole]
0.1 to 1 µM	Fc1cccc2c1C(CC(F)(F)C1CCCCC1)n1cncc1-2 (racemic) [Compound 65, 5-(2-cyclohexyl-2,2-difluoroethyl)-6-fluoro-5H-imidazo[4,3-a]isoindole]
> 1 µM	FC1(CCC2c3ccccc3-c3cncn32)CCCCC1 (single isomer, unassigned) [Compound 1a, 5-(2-(1-fluorocyclohexyl)ethyl)-5H-imidazo[5,1-a]isoindole]
